Measured values taken from US8772499B2, “TRPV3 modulators” (AbbVie Inc., priority 2011, dated 2014).
Where two headings read alike, the source gives them in different places.

Target: T1, human TRPV3 (Homo sapiens, UniProt Q8NET8)
T1 construct: expressed in transfected cells
T1 sequence (Q8NET8 1-790): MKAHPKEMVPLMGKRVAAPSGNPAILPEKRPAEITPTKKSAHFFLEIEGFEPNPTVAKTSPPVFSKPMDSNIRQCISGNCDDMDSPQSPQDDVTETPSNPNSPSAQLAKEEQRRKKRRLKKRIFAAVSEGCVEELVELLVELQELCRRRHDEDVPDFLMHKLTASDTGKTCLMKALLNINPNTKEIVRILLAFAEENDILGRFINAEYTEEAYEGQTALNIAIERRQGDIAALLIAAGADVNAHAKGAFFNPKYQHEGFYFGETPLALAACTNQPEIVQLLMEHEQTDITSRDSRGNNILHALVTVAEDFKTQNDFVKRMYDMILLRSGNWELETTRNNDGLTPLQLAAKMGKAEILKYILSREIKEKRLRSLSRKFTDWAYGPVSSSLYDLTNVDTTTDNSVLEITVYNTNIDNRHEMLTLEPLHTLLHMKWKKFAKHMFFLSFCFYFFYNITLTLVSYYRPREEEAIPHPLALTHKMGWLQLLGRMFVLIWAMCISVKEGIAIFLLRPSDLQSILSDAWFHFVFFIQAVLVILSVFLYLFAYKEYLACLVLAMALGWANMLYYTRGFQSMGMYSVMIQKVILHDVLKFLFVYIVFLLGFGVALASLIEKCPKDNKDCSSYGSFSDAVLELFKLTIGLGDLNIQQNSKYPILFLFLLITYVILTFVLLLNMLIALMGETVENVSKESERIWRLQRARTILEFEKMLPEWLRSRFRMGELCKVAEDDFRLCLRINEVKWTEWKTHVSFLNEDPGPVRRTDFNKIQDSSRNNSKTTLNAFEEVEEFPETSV
Assay: In vitro antagonism of recombinant human TRPV3 activation (FLIPR Tetra calcium assay)
Assay type: cell-based
Conditions: HEK293 cells stably expressing human TRPV3, agonist 2-APB at 80 μM
Experimental: Test compounds were evaluated for ability to antagonize the activation of recombinant human TRPV3 using FLIPR® Tetra cellular screening. Specifically, on the day prior to the experiment recombinant HEK293 cells that stably express human TRPV3 were removed from tissue culture flasks and plated in growth medium at 20,000 cells/well into Poly-d-lysine coated black/clear 384-well Plate (Corning, 3845) using a Multidrop® dispenser (ThermoScientific, Waltham, Mass.). Prior to the start of the assay, the medium was removed by aspiration, and cells were loaded with 30 μL no-wash FLIPR® Calcium-4 dye (λEX=470-495 nm, λEM=515-575 nm; Molecular Devices, Sunnyvale, Calif.). The cells were then incubated for 90-120 minutes in the dark prior to addition of the test compound.
A double-addition protocol was used. The test compound (i.e., the TRPV3 antagonist) was added at the 10 second time point, followed by the addition of a TRPV3 agonist three minutes later. Each test compound evaluated was first dissolved in DMSO to prepare a 10 mM stock solution. A solution (5×) of the test compound was then prepared in DPBS (Dulbecco's Phosphate Buffered Saline) and 10 μl, of that solution was added to the cells at a delivery rate of 40 μL/sec. The TRPV3 agonist used to activate human TRPV3 expressed by the […] was 2-aminoethoxy-diphenyl borate (2-APB; Tocris Cookson, Ellisville, Mo.) at 80 μM. Final assay volume was 50 μl, Total length of an experimental run was 10 minutes.
Changes in fluorescence were measured over time using the FLIPR® instrument. The intensity of the fluorescence was captured and digitally transferred to an interfaced computer. The maximum response minus minimum response was calculated and expressed as the percentage of the maximum 2-APB response in the absence of antagonist. The concentration of 2-APB corresponds to its EC80.
Table 1 reports the IC50 values measured for the test compounds as human TRPV3 antagonists. […] Actual measured values are shown parenthetically after the reported range. In most cases, the values reported are average values from at least two runs (i.e., n≧2).

[1] = actual measured value shown parenthetically, in most cases average of at least two runs, read-out: IC50
[2] = reported range, read-out: IC50 (range class)

SMILES | IC50 [1] [µM] | IC50 [2] [µM]
O=C1CC(c2ccc(OC(F)(F)F)cc2)([C@H](O)c2ccccn2)C1 (single isomer, unassigned) [Example 251] | 1.97 | 
CC1(O)CC(c2ccnc(C(F)(F)F)c2)(C(O)c2ccccn2)C1 (single isomer, unassigned) [Example 302] | 0.95 | 
OC(c1ccccn1)C1(c2cc(F)cc(C(F)(F)F)c2)CCC1 (centres unmarked) [Example 14, {1-[3-fluoro-5-(trifluoromethyl)phenyl]cyclobutyl}(pyridin-2-yl)methanol] | > 20 | > 20
CS(=O)(=O)c1ccc(C2(C(O)c3ccccn3)CCC2)cc1 (centres unmarked) [Example 16, {1-[4-(methylsulfonyl)phenyl]cyclobutyl}(pyridin-2-yl)methanol] | > 20 | > 20
OC(c1ccccn1)C1(c2ccc(-c3ccccc3)cc2)CCC1 (centres unmarked) [Example 22, [1-(1,1′-biphenyl-4-yl)cyclobutyl](pyridin-2-yl)methanol] | > 20 | > 20
OC(c1ncccn1)C1(c2ccc(OC(F)(F)F)cc2)CCC1 (centres unmarked) [Example 31, pyrimidin-2-yl{1-[4-(trifluoromethoxy)phenyl]cyclobutyl}methanol] | 3.08 | 
OC(c1ncccn1)C1(c2ccccc2F)CCC1 (centres unmarked) [Example 32, [1-(2-fluorophenyl)cyclobutyl](pyrimidin-2-yl)methanol] | > 20 | > 20
OC(c1ncccn1)C1(c2cccc(F)c2)CCC1 (centres unmarked) [Example 33, [1-(3-fluorophenyl)cyclobutyl](pyrimidin-2-yl)methanol] | 8.5 | 
OC(c1ncccn1)C1(c2ccc(F)cc2)CCC1 (centres unmarked) [Example 34, [1-(4-fluorophenyl)cyclobutyl](pyrimidin-2-yl)methanol] | > 20 | > 20
OC(c1ncccn1)C1(c2ccc(F)c(F)c2)CCC1 (centres unmarked) [Example 35, [1-(3,4-difluorophenyl)cyclobutyl](pyrimidin-2-yl)methanol] | 10.2 | 
OC(c1ncccn1)C1(c2ccccc2OC(F)(F)F)CCC1 (centres unmarked) [Example 36, pyrimidin-2-yl{1-[2-(trifluoromethoxy)phenyl]cyclobutyl}methanol] | 5.18 | 
CC(c1cccc(Cl)c1)C1(C(O)c2ccccn2)CCC1 (centres unmarked) [Example 44, {1-[1-(3-chlorophenyl)ethyl]cyclobutyl}(pyridin-2-yl)methanol] | 8 | 
CC(c1cccc(F)c1)C1(C(O)c2ccccn2)CCC1 (centres unmarked) [Example 47, {1-[1-(3-fluorophenyl)ethyl]cyclobutyl}(pyridin-2-yl)methanol] | 2.22 | 
CC(c1ccccc1F)C1(C(O)c2ccccn2)CCC1 (centres unmarked) [Example 48, {1-[1-(2-fluorophenyl)ethyl]cyclobutyl}(pyridin-2-yl)methanol] | 5.68 | 
CC(c1ccccc1)C1(C(O)c2ccccn2)CCC1 (centres unmarked) [Example 51, [1-(1-phenylethyl)cyclobutyl](pyridin-2-yl)methanol] | 8.25 | 
CC(c1ccc(C(F)(F)F)cc1)C1(C(O)c2ccccn2)CCC1 (centres unmarked) [Example 53, pyridin-2-yl(1-{1-[4-(trifluoromethyl)phenyl]ethyl}cyclobutyl)methanol] | 1.75 | 
OC(c1ccccn1)C1(c2ccccc2)CCOCC1 (centres unmarked) [Example 60, (4-phenyltetrahydro-2H-pyran-4-yl)(pyridin-2-yl)methanol] | 7.55 | 
OC(c1ccccn1)C1(c2cccc(F)c2)CCOCC1 (centres unmarked) [Example 61, [4-(3-fluorophenyl)tetrahydro-2H-pyran-4-yl](pyridin-2-yl)methanol] | 7.54 | 
OC(c1ccccn1)C1(c2ccc(F)cc2)CCOCC1 (centres unmarked) [Example 62, [4-(4-fluorophenyl)tetrahydro-2H-pyran-4-yl](pyridin-2-yl)methanol] | 11.8 | 

SMILES | IC50 [1] [µM] | IC50 [2] [µM]
OC(c1ccccn1)C1(c2ccc(F)c(F)c2)CCOCC1 (centres unmarked) [Example 63, [4-(3,4-difluorophenyl)tetrahydro-2H-pyran-4-yl](pyridin-2-yl)methanol] | 7.17 | 
OC(c1ccccn1)C1(c2ccc(Cl)cc2)CCOCC1 (centres unmarked) [Example 64, [4-(4-chlorophenyl)tetrahydro-2H-pyran-4-yl](pyridin-2-yl)methanol] | 2.34 | 
OC(c1ccccn1)C1(c2ccc(C(F)(F)F)cc2)CCOCC1 (centres unmarked) [Example 65, pyridin-2-yl{4-[4-(trifluoromethyl)phenyl]tetrahydro-2H-pyran-4-yl}-methanol] | 2.26 | 
OC(CC1(c2ccccc2)CCC1)c1ccccn1 (centres unmarked) [Example 68, 2-(1-phenylcyclobutyl)-1-(pyridin-2-yl)ethanol] | 3.68 | 
OC(CC1(c2ccc(Cl)cc2)CCC1)c1ccccn1 (centres unmarked) [Example 69, 2-[1-(4-chlorophenyl)cyclobutyl]-1-(pyridin-2-yl)ethanol] | 4.97 | 
OC(CC1(c2ccc(F)cc2)CCC1)c1ccccn1 (centres unmarked) [Example 70, 2-[1-(4-fluorophenyl)cyclobutyl]-1-(pyridin-2-yl)ethanol] | 12 | 
OC(CC1(c2cccc(F)c2)CCC1)c1ccccn1 (centres unmarked) [Example 71, 2-[1-(3-fluorophenyl)cyclobutyl]-1-(pyridin-2-yl)ethanol] | 2.13 | 
OC(CC1(c2cccc(Cl)c2)CCC1)c1ccccn1 (centres unmarked) [Example 72, 2-[1-(3-chlorophenyl)cyclobutyl]-1-(pyridin-2-yl)ethanol] | 2.24 | 
OC(CC1(c2ccc(Cl)c(Cl)c2)CCC1)c1ccccn1 (centres unmarked) [Example 73, 2-[1-(3,4-dichlorophenyl)cyclobutyl]-1-(pyridin-2-yl)ethanol] | 1.94 | 
OC(c1ccccn1)C1(c2ccc(C(F)(F)F)cc2)CCOC1 (centres unmarked) [Example 78, pyridin-2-yl{3-[4-(trifluoromethyl)phenyl]tetrahydrofuran-3-yl}methanol] | 3.56 | 
N#Cc1ccc(C2(C(O)c3ccccn3)CCOC2)cc1 (centres unmarked) [Example 79, 4-{3-[hydroxy(pyridin-2-yl)methyl]tetrahydrofuran-3-yl}benzonitrile] | > 20 | > 20
OC(c1ccccn1)C1(c2cccc(OC(F)(F)F)c2)CCOC1 (centres unmarked) [Example 80, pyridin-2-yl{3-[3-(trifluoromethoxy)phenyl]tetrahydrofuran-3-yl}methanol] | 1.78 | 
N#Cc1cccc(C2(C(O)c3ccccn3)CCOC2)c1 (centres unmarked) [Example 81, 3-{3-[hydroxy(pyridin-2-yl)methyl]tetrahydrofuran-3-yl}benzonitrile] | > 20 | > 20
COc1ccc(C2(C(O)c3ccccn3)CCOC2)cc1 (centres unmarked) [Example 83, [3-(4-methoxyphenyl)tetrahydrofuran-3-yl](pyridin-2-yl)methanol] | > 20 | > 20
COc1ccc(C2(C(O)c3ccccn3)CCOC2)cc1OC (centres unmarked) [Example 84, [3-(3,4-dimethoxyphenyl)tetrahydrofuran-3-yl](pyridin-2-yl)methanol] | > 20 | > 20
OC(c1ccccn1)C1(c2cccc(Cl)c2)COC1 (centres unmarked) [Example 86, [3-(3-chlorophenyl)oxetan-3-yl](pyridin-2-yl)methanol] | 3.56 | 
OC(C1CCCc2cccnc21)C1(c2ccccc2C(F)(F)F)CCC1 (stereo not drawn) [Example 196, (syn)-5,6,7,8-tetrahydroquinolin-8-yl{1-[2-(trifluoromethyl)phenyl]-cyclobutyl}methanol] | > 20 | > 20
NC1CCCCC1C(O)C1(c2ccc(C(F)(F)F)cc2)CCC1 (centres unmarked) [Example 207, (2-aminocyclohexyl) {1-[4-(trifluoromethyl)phenyl]cyclobutyl}methanol] | 3.99 | 
